Read-outs that look alike come from different tables or passages of the source.

Assay [1] is described as follows: Plasma TG lowering effect in rats after 14 days repeated oral administration, blood taken after 22-hours fasting. The settings on record: single agent alone, rat, pitavastatin calcium 10 mg/kg, K-134 or cilostazol 100 mg/kg. The class given is in vivo, Wistar rat. The text has this: To test effects of combination administration of the said agents, rats were used for the experiment. […] The vertical axis in FIG. 1 indicates concentration of plasma triglyceride (TG) (mg/dL). Administration groups: control; pitavastatin calcium (referred to as pitavastatin) alone; K-134 alone; cilostazol alone; combination of pitavastatin calcium (referred to as pitavastatin) and K-134; and combination of pitavastatin calcium (referred to as pitavastatin) and cilostazol, are listed from left to right.
Plasma TG lowering effect when pitavastatin calcium was administered in combination with K-134 or cilostazol was measured according to the following method 1-4.
A 7-week-old Wistar rat (CLEA Japan, Inc.) was housed in an animal room where light/dark cycle (light period with room lighting from 7.00 to 19.00), temperature of 23±3° C., and humidity of 55±15% were maintained through the experimental period, and solid feed (CLEA Japan, Inc.) and tap water were consumed freely.
Pitavastatin calcium, K-134 and cilostazol were each suspended in aqueous solution (1.0 mass %) of hydroxypropyl methyl cellulose (Shin-Etsu Chemical Co., Ltd.) and prepared in order that the administration dose was 1 mL/kg. The suspension was stored in a colored bottle and refrigerated at 4° C. Preparation was performed every seven days.
3. Test Method 36 rats were divided into 6 administration groups (each group consisted of 6 samples): (1) control; (2) pitavastatin calcium (10 mg/kg) alone; (3) K-134 (100 mg/kg) alone; (4) cilostazol (100 mg/kg) alone; (5) combination of pitavastatin calcium (10 mg/kg) and K-134 (100 mg/kg); and (6) combination of pitavastatin calcium (10 mg/kg) and cilostazol(100 mg/kg).
Pitavastatin was orally administered once daily at 4.00 pm for 14 days repeatedly, and K-134 or cilostazol was orally administered twice daily at 9.00 am and 4.00 pm for 14 days repeatedly. […] Blood sample was taken from each group after 22-hours fasting following the final administration in the afternoon, and plasma TG was measured. […]

The conditions of assay [2]: diabetic rat; cited from earlier work.
The conditions of assay [3]: normal rat; cited from earlier work.
For assay [4] the following is noted: clinical report, cited from earlier work.

Take `O=C(O)C[C@H](O)C[C@H](O)/C=C/c1c(C2CC2)nc2ccccc2c1-c1ccc(F)cc1` [pitavastatin, (3R, 5S, 6E)-7-[2-cycloropyl-4-(4-fluorophenyl)-3-quinolyl]-3,5-dihydroxy-6-heptenoic acid]: in assay [1], the “hypotriglyceridemic effect in vivo” value was “extremely weak”.

On to `O=C1CCc2cc(OCCCCc3nnnn3C3CCCCC3)ccc2N1` [cilostazol], for which the results for the hypotriglyceridemic effect entry in assay [2] and in assay [3] were “hypotriglyceridemic effect is reported” and “unstable”, respectively. Further, the “hypotriglyceridemic effect in vivo” value in assay [1] is on record as “little hypotriglyceridemic effect”. Moreover, the TG level result in assay [4] (4-week administration in a subject) is listed as “lowered”; in assay [4] (24-week administration), “return to former value after transient elevation”.

Turning to `O=C(NCCCOc1ccc2[nH]c(=O)ccc2c1)N(C1CC1)[C@@H]1CCCC[C@H]1O` [K-134, (−)-6-[3[3-cyclopropyl-3-[(1R, 2R)-2-hydroxycyclohexyl]ureido]-propoxy]-2-(1H)-quinolinone], the “hypotriglyceridemic effect in vivo” value in assay [1] is listed as “little hypotriglyceridemic effect”.

The record behind these values is US20150272944A1, “NOVEL TRIGLYCERIDE REDUCING AGENT” (KOWA COMPANY, LTD., priority 2005, published 2015).
